Experimental data from patent publication US8815936B2 (Nad Life Pty Ltd, priority 2008, dated 2014).

Key:
[1] = tested on: primary human foetal astrocytes; assay: Intracellular NAD+ levels in cultured human foetal astrocytes (NAD(H) microcycling assay); format: cell-based; settings: for abrogation of resveratrol-induced increase of intracellular NAD+ by de novo pathway inhibitor: inhibitor 1 mM + resveratrol 100 μM; for reversal of NAD+ depletion compared to 1-MT treatment alone: supplementation together with 1-MT
[2] = tested on: human primary Fibroblasts; assay: Residual DNA damage (dsDNA breaks) after UVB, Fibroblasts; format: cell-based; settings: for amount of dsDNA breaks: EC100 or EC100 equivalent combinations; for EC100: mono therapy, DNA repair
[3] = tested on: Human neuroblastoma cells (SK-N-SH); assay: Intracellular NAD+ in human neuroblastoma cells treated with H2O2, iron and ascorbic acid; format: cell-based; settings: for depletion of intracellular NAD+ levels: pre-treatment with 2, 20 and 200 μM, 100 μM H2O2
[4] = tested on: primary human foetal astrocytes; assay: H2O2-mediated intracellular NAD+ depletion in human foetal astrocytes; format: cell-based; settings: for intracellular NAD+ after oxidative (H2O2) insult: 24 hour pre-treatment (Melatonin 5 μM, Clioquinol 10 μM, resveratrol 100 μM), then 100 μM H2O2 15 min
[5] = tested on: human primary Keratinocytes; assay: Intracellular NAD 24 hr after UVB exposure in human skin cells; format: cell-based; settings: single therapy 24 hrs after 15 min UVB; NAD levels / LDH activity; N=3
Experimental: Human skin cells (keratinocytes) were grown at a density of 5×10^6 in PERMANOX® chamber-slides (NUNC) for 2 weeks. This method is commonly used in the industry and is well known to those skilled in the art. Accordingly, there is no need to detail the method utilised in this specification.
Cells were either left unexposed or exposed to 15 min UVB (˜200 mJcm^−2).
Cells were left to incubate for 24 hrs before analysis of intracellular NAD (FIG. 19a-d to FIG. 21) and extracellular LDH (FIG. 21). FIGS. 19a-d show the intracellular NAD concentrations+/−UV exposure, +/−supplementation. FIGS. 19e-h show supernatant LDH activity+/−UVE exposure, +/−supplementation.

[6] = tested on: human primary Keratinocytes; assay: Residual DNA damage (dsDNA breaks) after UVB, Keratinocytes; format: cell-based; settings: for amount of dsDNA breaks: EC100 or EC100 equivalent combinations; for EC100: mono therapy, DNA repair
PARP-1 = settings: exposure to 10-100 μM H2O2 for 20 min
[7] = tested on: primary human foetal astrocytes; settings: exposure to 10-100 μM H2O2 for 20 min
[8] = tested on: nicotinamide mononucleotide adenylyl transferase (NMNAT); assay: NMNAT activity in whole cell homogenates of human brain astrocytes; format: biochemical
[9] = target: human recombinant NMNAT (hr-NMNAT1) (Homo sapiens, UniProt Q9HAN9); settings: resveratrol 50, 100 and 200 μM
Sequence of human recombinant NMNAT (hr-NMNAT1) (Q9HAN9 whole entry): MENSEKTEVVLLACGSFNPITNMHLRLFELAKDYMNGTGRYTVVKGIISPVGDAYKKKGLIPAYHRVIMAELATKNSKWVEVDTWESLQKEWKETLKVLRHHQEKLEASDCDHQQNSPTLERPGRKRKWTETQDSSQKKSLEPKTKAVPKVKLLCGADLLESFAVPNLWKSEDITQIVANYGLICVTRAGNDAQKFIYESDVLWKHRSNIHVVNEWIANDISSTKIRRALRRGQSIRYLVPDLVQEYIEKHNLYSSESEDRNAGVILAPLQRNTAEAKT

Cn1cc(C[C@H](N)C(=O)O)c2ccccc21 [1-MT, 1-methyl tryptophan]
intracellular NAD+ levels ([1]; 1-MT 1 mM, 24 h): significant decrease
abrogation of resveratrol-induced increase of intracellular NAD+ by de novo pathway inhibitor ([1]; 24 hour): Neither inhibitor was able to abrogate the resveratrol effect

Oc1c(I)cc(Cl)c2cccnc12 [Clioquinol]
amount of dsDNA breaks ([2]; 24 hr after UVB exposure): significantly reduced
EC100 [2]: 0.1 µM
.OH-induced NAD+ depletion ([3]; Clioquinol 1 μM-100 μM, dose dependant, 100 μM H2O2, 10 μM iron, 10 μM ascorbic acid): effectively reduced
intracellular NAD+ after oxidative (H2O2) insult [4]: significantly reduced NAD^+ depletion
Minimum effective concentrations (MEC) [5]: 0.1 µM
amount of dsDNA breaks ([6]; 24 hr after UVB exposure): significantly reduced
EC100 [6]: 0.1 µM

OO [H2O2, hydrogen peroxide]
PARP-1 activity (PARP-1): significantly increased
Intracellular NAD+ ([4]; exposure to 10-100 μM H2O2 for 20 min): significantly decreased
LDH activity (a measure of cell death) [7]: significantly increased

N[C@@H](Cc1c[nH]c2ccccc12)C(=O)O [L-tryptophan]
reversal of NAD+ depletion compared to 1-MT treatment alone ([1]; 24 h): partially reversed

COc1ccc2[nH]cc(CCNC(C)=O)c2c1 [Melatonin]
reduction in damaged DNA ([2]; 24 hr after UVB exposure): ~40%
amount of dsDNA breaks ([2]; 24 hr after UVB exposure): significantly reduced
EC100 [2]: 100 µM
depletion of intracellular NAD+ levels [3]: inhibited
intracellular NAD+ after oxidative (H2O2) insult [4]: significantly reduced NAD^+ depletion
reduction in damaged DNA ([6]; 24 hr after UVB exposure): ~30%
amount of dsDNA breaks ([6]; 24 hr after UVB exposure): significantly reduced
EC100 [6]: 100 µM

O=C(O)c1ccccc1C(=O)O [PA]
abrogation of resveratrol-induced increase of intracellular NAD+ by de novo pathway inhibitor ([1]; 24 hour): Neither inhibitor was able to abrogate the resveratrol effect

NC(=O)c1ccccn1 [Picolinamide]
amount of dsDNA breaks ([2]; 24 hr after UVB exposure): significantly reduced
EC100 [2]: 100 µM
amount of dsDNA breaks ([6]; 24 hr after UVB exposure): significantly reduced
EC100 [6]: 100 µM

O=c1c(O)c(-c2ccc(O)c(O)c2)oc2cc(O)cc(O)c12 [Quercetin]
NAD+ levels after H2O2 exposure ([4]; quercetin (50 μM) overnight, then 10-100 μM H2O2 for 20 min): significantly preserved

Oc1ccc(/C=C/c2cc(O)cc(O)c2)cc1 [Resveratrol, 3,5,4′-trihydroxystilbene]
increase of NMNAT activity compared to control ([8]; 200 μM resveratrol, whole cell homogenates): 67%
increase of NMNAT activity in the whole cell extract ([8]; presence of resveratrol (FIG. 16)): approximately 70%
amount of dsDNA breaks ([2]; 24 hr after UVB exposure): significantly reduced
EC100 [2]: 100 µM
intracellular NAD+ versus control levels ([1]; resveratrol 100 μM, 24 hour): significantly increased
increase in intracellular NAD+ concentration ([1]; resveratrol 100 μM, 24 hour, cells not subject to oxidative stress): approximately 75%
decrease of Km [9]: approximately 3 times
intracellular NAD+ after oxidative (H2O2) insult [4]: did not show a significant change
apparent antioxidant activity (H2O2-mediated NAD+ depletion) ([4]; resveratrol 100 μM 24 hour, then H2O2 20 minutes): small reduction in NAD^+ depletion
Minimum effective concentrations (MEC) [5]: 50 µM
amount of dsDNA breaks ([6]; 24 hr after UVB exposure): significantly reduced
EC100 [6]: 100 µM

O=C(O)c1cccnc1 [nicotinic acid, Nicotinic acid]
reversal of NAD+ depletion compared to 1-MT treatment alone ([1]; 24 h): partially reversed

O=C(OC[C@H]1O[C@@H](OC(=O)c2cc(O)c(O)c(OC(=O)c3cc(O)c(O)c(O)c3)c2)[C@H](OC(=O)c2cc(O)c(O)c(OC(=O)c3cc(O)c(O)c(O)c3)c2)[C@@H](OC(=O)c2cc(O)c(O)c(OC(=O)c3cc(O)c(O)c(O)c3)c2)[C@@H]1OC(=O)c1cc(O)c(O)c(OC(=O)c2cc(O)c(O)c(O)c2)c1)c1cc(O)c(O)c(OC(=O)c2cc(O)c(O)c(O)c2)c1 [tannic acid]
NAD+ levels, tannic acid alone ([1]; 100 μM, 24 hour incubation): did not significantly reduce
effect of resveratrol on intracellular NAD+ levels in presence of tannic acid ([1]; tannic acid 100 μM + resveratrol 100 μM, 24 hours): completely abrogated

Vitamin E
depletion of intracellular NAD+ levels [3]: inhibited
